These results are taken from patent US10793563B2, “GCN2 inhibitors and uses thereof” (Merck Patent GmbH, priority 2018, dated 2020).

SMILES strings stand for the structures. Where two headings read alike, the source gives them in different places.

The target in experiment [1] is GCN2 kinase (Homo sapiens (Human), UniProt Q9P2K8). In words: GCN2 Enzyme Inhibition Assay (Transcreener ADP2 fluorescence polarization). The format is biochemical. The following applies: 280 μM ATP, 200 μM (RS)7 peptide, 4 nM GCN2, 25° C.; for Ki: Ki(app). The method in brief: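 Transcreener ADP2 fluorescence polarization detection of ADP from 4 nM GCN2 with (RS)7 substrate in 25 mM Tris-HCl pH 7.5, 50 mM NaCl, 10 mM MgCl2, 1 mM DTT. Compound pre-incubated with enzyme 10 min at 25 °C; reaction started by ATP, run 1 h at 25 °C. IC50 and Ki(app) by tight-binding fit.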
GCN2 kinase, sequence (Q9P2K8 whole entry): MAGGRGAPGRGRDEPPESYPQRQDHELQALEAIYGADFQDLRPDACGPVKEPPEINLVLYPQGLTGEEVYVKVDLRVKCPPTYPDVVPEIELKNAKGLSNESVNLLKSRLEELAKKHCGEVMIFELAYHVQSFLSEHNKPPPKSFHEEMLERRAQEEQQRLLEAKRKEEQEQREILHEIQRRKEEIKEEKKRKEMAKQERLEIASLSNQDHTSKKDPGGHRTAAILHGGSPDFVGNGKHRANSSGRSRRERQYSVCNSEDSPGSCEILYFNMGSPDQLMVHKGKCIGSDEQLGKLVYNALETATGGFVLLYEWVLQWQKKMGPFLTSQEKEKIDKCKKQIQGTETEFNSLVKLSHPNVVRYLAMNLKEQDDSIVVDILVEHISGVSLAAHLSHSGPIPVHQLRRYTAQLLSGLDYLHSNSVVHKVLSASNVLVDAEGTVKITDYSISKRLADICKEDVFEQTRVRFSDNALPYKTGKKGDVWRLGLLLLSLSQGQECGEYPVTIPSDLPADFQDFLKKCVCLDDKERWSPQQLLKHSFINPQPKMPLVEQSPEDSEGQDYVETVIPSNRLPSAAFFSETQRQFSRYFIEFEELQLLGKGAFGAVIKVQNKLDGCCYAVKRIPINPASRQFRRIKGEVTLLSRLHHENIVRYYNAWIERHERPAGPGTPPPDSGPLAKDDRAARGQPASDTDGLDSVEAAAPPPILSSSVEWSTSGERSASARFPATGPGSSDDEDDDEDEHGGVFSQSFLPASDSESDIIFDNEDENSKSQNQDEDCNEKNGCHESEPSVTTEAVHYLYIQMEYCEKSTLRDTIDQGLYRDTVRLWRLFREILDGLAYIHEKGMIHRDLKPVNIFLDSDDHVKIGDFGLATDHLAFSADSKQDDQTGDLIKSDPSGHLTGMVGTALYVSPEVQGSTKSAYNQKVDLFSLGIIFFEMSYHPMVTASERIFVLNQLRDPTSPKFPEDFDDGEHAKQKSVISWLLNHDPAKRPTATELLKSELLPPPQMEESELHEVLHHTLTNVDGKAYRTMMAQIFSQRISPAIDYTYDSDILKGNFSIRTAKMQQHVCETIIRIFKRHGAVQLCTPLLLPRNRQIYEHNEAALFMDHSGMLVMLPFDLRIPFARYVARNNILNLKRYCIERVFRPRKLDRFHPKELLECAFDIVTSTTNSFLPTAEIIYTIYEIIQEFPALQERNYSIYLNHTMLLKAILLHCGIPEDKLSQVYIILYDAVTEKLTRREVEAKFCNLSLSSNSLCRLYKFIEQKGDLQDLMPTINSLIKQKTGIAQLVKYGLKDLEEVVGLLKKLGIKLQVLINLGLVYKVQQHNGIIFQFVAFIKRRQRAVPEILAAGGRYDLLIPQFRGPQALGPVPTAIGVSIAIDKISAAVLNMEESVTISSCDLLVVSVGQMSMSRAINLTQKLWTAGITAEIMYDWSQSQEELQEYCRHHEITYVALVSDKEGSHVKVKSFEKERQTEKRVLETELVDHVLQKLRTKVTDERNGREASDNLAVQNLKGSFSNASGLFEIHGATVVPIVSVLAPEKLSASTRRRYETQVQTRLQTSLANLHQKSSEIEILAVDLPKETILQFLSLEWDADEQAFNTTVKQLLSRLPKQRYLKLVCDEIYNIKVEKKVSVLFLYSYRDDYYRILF
Background: In fluorescence polarisation assays a small probe gives low polarisation when free and higher when bound to something large.

Experiment [2] has as its target intracellular GCN2 (phosphorylation of the GCN2 substrate eIF2α) (Homo sapiens (Human), UniProt Q9P2K8). In words: GCN2 Cellular Inhibition Assay (AlphaScreen SureFire P-eIF2α Ser51, borrelidin-treated U2OS cells). The format is cell-based. The note with it: 10 μM borrelidin, 1 h. The method in brief:
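U2OS cells adhered overnight, then given compound (top 40 μM, 4-fold serial dilutions) plus 10 μM borrelidin for 1 h at 37 °C. Lysates assayed for eIF2α phospho-Ser51 by AlphaScreen SureFire; % inhibition versus borrelidin-only wells.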
(Bead proximity is the source of the signal in Alpha formats.)

The mark [3] stands for this setting: phosphorylated eIF2α Ser51, read-out: GCN2 Biomarker (IC50).

intracellular GCN2 (phosphorylation of the GCN2 substrate eIF2α), sequence (Q9P2K8 whole entry): as above

Turning to `O=C(c1cnon1)N1CCN(c2ccnc(-c3cnc4ccc(C(F)(F)F)cn34)n2)CC1c1cn[nH]c1` (stereo not drawn) [I-441, (2-(1H-pyrazol-4-yl)-4-(2-(6-(trifluoromethyl)imidazo[1,2-a]pyridin-3-yl)pyrimidin-4-yl)piperazin-1-yl)(1,2,5-oxadiazol-3-yl)methanone], the IC50 (as a rule, the point on the concentration scale where inhibition reaches its midpoint) in experiment [1] was 10 to 100 nM; in experiment [2] (setting [3]), above 5000 nM.
For `CS(=O)(=O)c1ccc2ncc(-c3nccc(N4CCCC(c5cn[nH]c5)C4)n3)n2c1` (stereo not drawn) [I-313, 3-(4-(3-(1H-pyrazol-4-yl)piperidin-1-yl)pyrimidin-2-yl)-6-(methylsulfonyl)imidazo[1,2-a]pyridine], in that order: 10 to 100 nM and 500 to 5000 nM.
For `C[C@@H]1[C@@H](c2cn[nH]c2)NCCN1c1ccnc(-c2cnc3ccc(C(F)(F)F)cn23)n1` [I-536, 3-(4-((2R,3R)-2-methyl-3-(1H-pyrazol-4-yl)piperazin-1-yl)pyrimidin-2-yl)-6-(trifluoromethyl)imidazo[1,2-a]pyridine], in that order: 100 to 1000 nM and 500 to 5000 nM.
As to `Clc1ccc2ncc(-c3nccc(N4CCCC(c5cnoc5)C4)n3)n2c1` (stereo not drawn) [I-65, 6-Chloro-3-[4-(3-isoxazol-4-yl-piperidin-1-yl)-pyrimidin-2-yl]-imidazo[1,2-a]pyridine], the Ki in experiment [1] fell in the range of 10 to 100 nM. Also, the concentration for half-maximal inhibition (IC50) in experiment [2] (setting [3]) fell in the range of 500 to 5000 nM.
As to `C[C@@H]1[C@H](c2cn[nH]c2)N(C2COC2)CCN1c1ccnc(-c2cnc3ccc(C(F)(F)F)cn23)n1` [I-362, 4-[(2R,3 S)-2-methyl-4-(oxetan-3-yl)-3-(1H-pyrazol-4-yl)piperazin-1-yl]-2-[6-(trifluoromethyl)imidazo[1,2-a]pyridin-3-yl]pyrimidine], the IC50 in experiment [1] was below 10 nM; in experiment [2] (setting [3]), below 500 nM.
For `OC1CC(N2CCN(c3ccnc(-c4cnc5ccc(C(F)(F)F)cn45)n3)CC2c2cn[nH]c2)C1` (stereo not drawn) [I-383, 3-(2-(1H-pyrazol-4-yl)-4-(2-(6-(trifluoromethyl)imidazo[1,2-a]pyridin-3-yl)pyrimidin-4-yl)piperazin-1-yl)cyclobutan-1-ol], in that order: below 10 nM and 500 to 5000 nM.
Regarding `O=C1NCC2CN(c3ccnc(-c4cnc5ccc(C(F)(F)F)cn45)n3)CCN12` (stereo not drawn) [I-6, 7-(2-(6-(trifluoromethyl)imidazo[1,2-a]pyridin-3-yl)pyrimidin-4-yl)hexahydroimidazo[1,5-a]pyrazin-3(2H)-one], the Ki in experiment [1] fell in the range of 10 to 100 nM. In experiment [2] (setting [3]), the IC50 fell in the range of 500 to 5000 nM.
Take `CC(=O)N1[C@H](C)CN(c2ccnc(-c3cnc4ccc(C(F)(F)F)cn34)n2)C[C@@H]1C` [I-414, 1-(cis-2,6-dimethyl-4-(2-(6-(trifluoromethyl)imidazo[1,2-a]pyridin-3-yl)pyrimidin-4-yl)piperazin-1-yl)ethan-1-one]: the figures for the IC50 in experiment [1] and in experiment [2] (setting [3]) were 10 to 100 nM and 500 to 5000 nM, respectively.
For `CC1C(c2cn[nH]c2)N(C2COC2)CCN1c1ccnc(-c2cnc3ccc(C(F)(F)F)cn23)n1` (stereo not drawn) [I-322, 4-[2-methyl-4-(oxetan-3-yl)-3-(1H-pyrazol-4-yl)piperazin-1-yl]-2-[6-(trifluoromethyl)imidazo[1,2-a]pyridin-3-yl]pyrimidine], in that order: 10 to 100 nM and below 500 nM.
`Fc1cc2ncc(-c3nccc(N4CCCC(c5c[nH]cn5)C4)n3)n2cc1Cl` (stereo not drawn) [I-57, 6-Chloro-7-fluoro-3-{4-[3-(1H-imidazol-4-yl)-piperidin-1-yl]-pyrimidin-2-yl}-imidazo[1,2-a]pyridine]: in experiment [1], the Ki lay within 10 to 100 nM. Also, the concentration for half-maximal inhibition (IC50) in experiment [2] (setting [3]) lay in the range of 500 to 5000 nM.
Compound `CS(=N)(=O)C[C@H]1CCCN(c2ccnc(-c3cnc4ccc(Cl)cn34)n2)C1` (stereo in doubt) [I-21, 6-Chloro-3-(4-(3-((methylsulfonimidoyl)methyl)piperidin-1-yl)pyrimidin-2-yl)imidazo[1,2-a]pyridine] showed a Ki in experiment [1] of 10 to 100 nM. In addition, the concentration for half-maximal inhibition (IC50) in experiment [2] (setting [3]) lay in the range of 500 to 5000 nM.
Consider `CC1(C)CN(c2ccnc(-c3cnc4ccc(C(F)(F)F)cn34)n2)CCN1C(=O)C1CCC(=O)CC1` [I-492, 4-(2,2-dimethyl-4-(2-(6-(trifluoromethyl)imidazo[1,2-a]pyridin-3-yl)pyrimidin-4-yl)piperazine-1-carbonyl)cyclohexan-1-one], for which the half-inhibitory concentration (IC50) in experiment [1] lay within 10 to 100 nM; in experiment [2] (setting [3]), 500 to 5000 nM.
For `COc1cc(-c2cnc3ccc(Cl)cn23)nc(N2C[C@@H](C)C[C@@H](c3cn[nH]c3)C2)n1` [I-281, 6-chloro-3-(6-methoxy-2-((3S,5S)-3-methyl-5-(1H-pyrazol-4-yl)piperidin-1-yl)pyrimidin-4-yl)imidazo[1,2-a]pyridine], in that order: 10 to 100 nM and below 500 nM.
As to `C[C@@H]1CN(c2ccnc(-c3cnc4ccc(C(F)(F)F)cn34)n2)C[C@H](C)N1C(=O)C1CC1` [I-403, cyclopropyl(cis-2,6-dimethyl-4-(2-(6-(trifluoromethyl)imidazo[1,2-a]pyridin-3-yl)pyrimidin-4-yl)piperazin-1-yl)methanone], the IC50 in experiment [1] lay in the range of 100 to 1000 nM; in experiment [2] (setting [3]), 500 to 5000 nM.
For `Cc1n[nH]cc1C1CC(O)CN(c2ccnc(-c3cnc4ccc(Cl)cn34)n2)C1` (stereo not drawn) [I-302, 1-(2-(6-chloroimidazo[1,2-a]pyridin-3-yl)pyrimidin-4-yl)-5-(3-methyl-1H-pyrazol-4-yl)piperidin-3-ol], in that order: below 10 nM and below 500 nM.
In turn, `O=C1NCC2CN(c3ccnc(-c4cnc5ccc(C(F)(F)F)cn45)n3)CCN12` (stereo not drawn) [I-43, 7-[2-[6-(Trifluoromethyl)imidazo[1,2-a]pyridin-3-yl]pyrimidin-4-yl]-1,2,5,6,8,8a-hexahydroimidazo[1,5-a]pyrazin-3-one] returned a Ki in experiment [1] below 10 nM. Moreover, the half-maximal inhibitory concentration (IC50) in experiment [2] (setting [3]) fell in the range of 500 to 5000 nM.
With `Cc1noc([C@H]2CN(c3ccnc(-c4cnc5ccc(Cl)cn45)n3)C[C@@H](C)O2)n1` [I-54], the Ki in experiment [1] lay in the range of 10 to 100 nM. This compound also came in with an IC50 in experiment [2] (GCN2 Biomarker (IC50), phosphorylated eIF2α Ser51) of 500 to 5000 nM.
With `COc1cc(-c2cnc3ccc(Cl)cn23)nc(N2C[C@H](C)C[C@H](c3cn[nH]c3)C2)n1` [I-279, 6-chloro-3-(6-methoxy-2-((3R,5R)-3-methyl-5-(1H-pyrazol-4-yl)piperidin-1-yl)pyrimidin-4-yl)imidazo[1,2-a]pyridine], the figures for the IC50 in experiment [1] and in experiment [2] (setting [3]) were 10 to 100 nM and 500 to 5000 nM, respectively.
As for `NC(=O)[C@H]1C[C@H](O)CN(c2nccc(-c3cnc4ccc(Cl)cn34)n2)C1` [I-316, (3 S,5S)-1-(4-(6-chloroimidazo[1,2-a]pyridin-3-yl)pyrimidin-2-yl)-5-hydroxypiperidine-3-carboxamide], the IC50 in experiment [1] is below 10 nM; in experiment [2] (setting [3]), below 500 nM.
The compound `NC(=O)[C@H]1CCCN(c2ccnc(-c3cnc4cc(F)c(Cl)cn34)n2)C1` [I-48, (3S)-1-[2-(6-Chloro-7-fluoro-imidazo[1,2-a]pyridin-3-yl)pyrimidin-4-yl]piperidine-3-carboxamide] had a Ki in experiment [1] below 10 nM. Moreover, the 50% inhibitory concentration (IC50) in experiment [2] (setting [3]) was below 500 nM.
Consider `Cc1n[nH]cc1C1CN(c2ccnc(-c3cnc4ccc(C(F)(F)F)cn34)n2)CC(C)O1` (stereo not drawn) [I-358, 2-methyl-6-(3-methyl-1H-pyrazol-4-yl)-4-(2-(6-(trifluoromethyl)imidazo[1,2-a]pyridin-3-yl)pyrimidin-4-yl)morpholine], for which the IC50 in experiment [1] was below 10 nM; in experiment [2] (setting [3]) it was below 500 nM.
For `OCC1CC(N2CCN(c3ccnc(-c4cnc5ccc(C(F)(F)F)cn45)n3)CC2c2cn[nH]c2)C1` (stereo not drawn) [I-390, (3-(2-(1H-pyrazol-4-yl)-4-(2-(6-(trifluoromethyl)imidazo[1,2-a]pyridin-3-yl)pyrimidin-4-yl)piperazin-1-yl)cyclobutyl)methanol], in that order: below 10 nM and below 500 nM.
`CC1CN(c2ccnc(-c3cnc4ccc(Cl)cn34)n2)C(C)C(c2cn[nH]c2)N1` (stereo not drawn) [I-36, 6-chloro-3-[4-[2,5-dimethyl-3-(1H-pyrazol-4-yl)piperazin-1-yl]pyrimidin-2-yl]imidazo[1,2-a]pyridine] came in with a Ki in experiment [1] below 10 nM. Moreover, the IC50 in experiment [2] (setting [3]) is below 500 nM.
Turning to `FC(F)(F)c1ccc2ncc(-c3nccc(N4CCN(CC5CC5(F)F)C(c5cn[nH]c5)C4)n3)n2c1` (stereo not drawn) [I-470, 3-(4-(4-((2,2-difluorocyclopropyl)methyl)-3-(1H-pyrazol-4-yl)piperazin-1-yl)pyrimidin-2-yl)-6-(trifluoromethyl)imidazo[1,2-a]pyridine], the results for the IC50 in experiment [1] and in experiment [2] (setting [3]) were below 10 nM and below 500 nM, respectively.
For `C[C@@H]1CCN(c2ccnc(-c3cnc4ccc(C(F)(F)F)cn34)n2)CC1F` (stereo in doubt) [I-240, 3-(4-((3R,4R)-3-fluoro-4-methylpiperidin-1-yl)pyrimidin-2-yl)-6-(trifluoromethyl)imidazo[1,2-a]pyridine], the figures for the IC50 in experiment [1] and in experiment [2] (setting [3]) were 100 to 1000 nM and 500 to 5000 nM, respectively.
For `C[C@@H]1CN(c2ccnc(-c3cnc4ccc(C(F)(F)F)cn34)n2)C[C@H](C)N1C(=O)CC1CCOCC1` [I-464, 1-(cis-2,6-dimethyl-4-(2-(6-(trifluoromethyl)imidazo[1,2-a]pyridin-3-yl)pyrimidin-4-yl)piperazin-1-yl)-2-(tetrahydro-2H-pyran-4-yl)ethan-1-one], in that order: 100 to 1000 nM and 500 to 5000 nM.
For the compound `CC1CN(c2nccc(-c3cnc4ccc(C(F)(F)F)cn34)n2)C(C)C(c2cn[nH]c2)N1` (single isomer, unassigned) [I-34, 3-[2-[2,5-dimethyl-3-(1H-pyrazol-4-yl)piperazin-1-yl]pyrimidin-4-yl]-6-(trifluoromethyl)imidazo[1,2-a]pyridine], the Ki in experiment [1] was below 10 nM. For the same compound, the half-inhibitory concentration (IC50) in experiment [2] (setting [3]) is below 500 nM.
